Source: patent publication US10898522B2, “Compositions and methods for treating graft versus host disease” (Children's Research Institute, Children's National Medical …, priority 2015, dated 2021)
“Also recorded” adds a separate entry of the source.

Legend:
[1] = system: HIF-1α; test: Intracellular FACS staining of HIF-1α in human T cells from spleen of GvHD mice after echinomycin; assay type: in vivo
Text: (§1) FIG. 4. HIF-1α accumulates in a high proportion of human T cells derived from spleen and BM of the recipients of human BMC: Impact of echinomycin. Panel A. Representative FACS plots showing the accumulation of HIF-1α in T cells from the spleen and BM of GvHD mice. Spleen and BM cells were isolated from the spleens and BM of GvHD mice, stained with anti-human CD45, CD4, CD8, and then intracellular stained with anti-human HIF-1α. Panel B. Representative FACS plots showing the accumulation of HIF-1α in all human cells from spleens of GvHD mice. Spleen cells were isolated from the spleens of GvHD mice, stained with anti-human CD45, CD4, CD8, and then intracellular stained with anti-human HIF-1α. FACS analysis was performed to determine the percentage of HIF-1α positive cells in CD45^+CD4^+CD8-, CD45^+CD4-D8^+ and CD45^+CD4-D8-subpopulations. Panel C. Representative FACS plots showing the percentage of HIF-1α positive T cells in spleen of GvHD mice after echinomycin treatment. […]
(§2) Spleens were gently grinded with frosted objective slides and bone marrow was dissociated with syringes to obtain single-cell suspensions and passed through a nylon cell strainer, washed three times with RPMI-1640, labeled with antibodies and analyzed for the presence of different human cell populations. […]

[2] = system: HIF-1α; test: Western blot of human HIF-1α in spleen cells from GvHD mice after echinomycin; assay type: in vivo; conditions: echinomycin-treated GvHD mice compared to vehicle controls
Text: as §1
To test the significance of HIF-1α accumulation, GvHD recipient mice were treated with echinomycin, a selective inhibitor of HIF-1α. […] Further, spleen cells from GvHD mice were isolated and human HIF-1α protein levels from echinomycin-treated mice and vehicle controls were measured by western blot analysis. […]

[3] = system: FoxP3+ human T cells (Treg); test: FACS of FoxP3+ cells within CD4 T cell subset from spleen and BM of GvHD mice; assay type: in vivo; conditions: one dose of 100 μg/kg echinomycin vs vehicle
Text: as §1, §2

[4] = system: humanized GvHD mice; test: Treatment of humanized GvHD mice (newborn NSG pups transplanted with human BM cells) with echinomycin; assay type: in vivo, mouse
Description: FIG. 5. Sustained treatment of echinomycin protects mice against GvHD and eliminates expanded human leukocytes and inflammation. Panel A. Dosing regimen of echinomycin treatment for humanized GvHD mice. The day that mice were transplanted with human BM cells is defined as day 0. Each arrow represents one echinomycin treatment. The dose for each treatment is 10 μg/kg via intraperitoneal injection. Panel B. Longitudinal analysis of clinical representation of an echinomycin-treated mice. Panel C. Representative FACS plots showing the percentage of human CD45^+ cells in PBL of GvHD mice before and after echinomycin treatment. Data is one representative file from 3 mice and representative of three independent experiments. […] Data are representative of three independent experiments.
FIG. 6. Echinomycin protects mice against lethal GvHD. Panel A. Newborn NSG pups were transplanted with human 5×10^5 BM cells. The mice were treated with the dosing regimen of echinomycin listed in FIG. 5, Panel A. Panel B. Newborn NSG pups were transplanted with human 3×10^5 BM cells. The mice were treated with the dosing regimen of echinomycin listed in FIG. 5, Panel A, except treatment is started at day 17 rather than day 27. […] Data are representative of three independent experiments.
Human bone marrow mononuclear cells were isolated from healthy human adult bone marrow using density gradient separation were purchased from Stemcell Technologies (Vancouver, Canada) and Lonza (Walkersville, Md., USA). Human CD3^+ cells from BM were sorted from human BM cells using BD Influx (BD Biosciences). Cells were thawed, counted and re-suspended in 1×PBS in a concentration of 0.1-0.5×10^6 per 30 μl. 0.1-0.5×10^6 cells were transplanted via intrahepatic injection into irradiated (1.30 Gy) newborn NSG pups. Human CD45^+ cells in PBMC of recipients were detected by FACS analysis at day 17 to 20 after transplantation.
Peripheral blood was collected by sub-mandibular bleeding at different times after transplantation of human BM cells. Fluorochrome-labeled antibodies were directly added into whole blood. After 30 min of staining, the unbound antibodies were washed away and the red blood cells were lysed with BD FACS™. The stained cells were analyzed with BD FACS Canto II flow cytometry.
Immunohistochemistry was performed on tissue sections from skin, liver, lung, spleen, and kidney of humanized NSG mice. Sections were fixed with 4% paraformaldehyde and dehydrated with graded alcohol. After treatment with heated citrate buffer for antigen retrieval, sections were blocked for endogenous peroxidase activity. Sections were then incubated in 10% goat serum followed by primary antibodies at 4° C. overnight. Fixed samples were stained with the following antibodies, anti-human CD45 (MEM-28) and CD3 (ab828, Abcam PLC, Cambridge, Mass.), for detection of infiltrated human cells. After incubation for 30 minutes with secondary antibody, the specimens were visualized by DAB treatment. Sections were lightly counterstained with hematoxylin to enable visualization of nuclei.
Newborn NSG pups received 0.3-0.5×10^6 human BM cells intrahepatically. Beginning on day 17 or 27, the recipients received 5 intraperitoneal injections of echinomycin, daily at 10 μg/kg. Following 2 days of rest, another 5 intraperitoneal injections of echinomycin were administered at the same dose, once per day. The second round of treatment was performed following 5 days of rest from the prior round of treatment, using the same dose once every other day for 10 total treatments.
To better understand the importance of HIF-1α in the therapy of GvHD, the effect of HIF-1α inhibition was examined. Newborn pups were transplanted with 0.5×10^6 human BM cells via intra-hepatic injection. Twenty-seven days after transplantation, mice were treated with 10 μg/kg of echinomycin for a total of 20 treatments. […]

[5] = system: HIF-1α / leukemia stem cells; conditions: in vivo; cited from earlier work

CS[C@H]1SC[C@H]2C(=O)N(C)[C@@H](C(C)C)C(=O)OC[C@@H](NC(=O)c3cnc4ccccc4n3)C(=O)N[C@@H](C)C(=O)N(C)[C@@H]1C(=O)N(C)[C@@H](C(C)C)C(=O)OC[C@@H](NC(=O)c1cnc3ccccc3n1)C(=O)N[C@@H](C)C(=O)N2C [echinomycin]
HIF-1α protein in HIF-1α+ T cells of spleen (FACS) ([1]; single dose of 100 μg/kg echinomycin, overnight): lost HIF-1α protein overnight
T cell frequencies ([1]; single dose of echinomycin): largely unaffected
HIF-1α protein levels in spleen cells (western blot) [2]: significantly decreased
proportion of Tregs (FoxP3+ cells within CD4 T cell subset) [3]: no apparent difference
proportion of Tregs (FoxP3+ cells within CD4 T cell subset) ([3]; listed as Echinomycin): does not expand human Treg
median survival ([4]; 0.3×10^6 human BM cells, treatment started day 17, 10 μg/kg i.p.): 119 days
survival during the treatment period ([4]; 0.5×10^6 BM cells, 10 μg/kg, 20 treatments from day 27, all vehicle treated mice died): survived
reduction of number of human leukocytes in the peripheral blood ([4]; 0.5×10^6 human BM cells, 10 μg/kg i.p. from day 27, over 5 weeks): more than 10 fold
median survival ([4]; 0.5×10^6 human BM cells, treatment started day 27, 10 μg/kg i.p.): 99 days
life span (Kaplan-Meier survival curve) compared with vehicle ([4]; 3×10^5 or 5×10^5 BM cells, regimen of FIG. 5 Panel A): significantly prolonged life span
mice protected against lethal GvHD ([4]; continuous treatment of echinomycin): ~100%
clinical symptoms (skin, hair) ([4]; one treated mouse, after two weeks of treatments, 10 μg/kg from day 27): regained smooth skin with visible regrowth of hair
human CD3+ T cells in organs (IHC) ([4]; skin, intestine, liver and lung, 10 μg/kg i.p. from day 27, day 75): elimination of T cells from all major organs; also recorded: significant reduction of CD3^+ cells
life span longer than that of mice treated starting at Day 27 ([4]; treatment started day 17 vs day 27): 20 days
adverse reactions towards hematopoietic stem cells [5]: without adverse reactions
efficacy in experimental leukemia and lymphoma [5]: effective in treating experimental leukemia and lymphoma
